In the SangsterLogP compilation one finds logP data, which are given here for 17 compounds.

What is called logP is a log measure of how a compound divides between an organic and an aqueous phase. Read a low logP as a more hydrophilic compound.

Assay in one series: not given
On to `O=c1[nH]c2ccccc2n1CCCN1CCN(C(c2ccccc2)c2ccccc2)CC1`, for which the logP worked out at 2.73.

A short description of another series: method code SF, from DOI: 10.1063/1.555833.
Compound `COc1ccc(-c2cnoc2N)cc1OC` showed a lipophilicity (logP) of 0.48.

Consider `CCc1nn(-c2ccccc2)c(N)c1-c1ccc(OC)c(OC)c1`, for which the lipophilicity (logP) amounted to 2.82. `Cc1cc2c(c3c1[nH]c1ccccc13)C(=O)CC(C)(C)C2` returned a log partition coefficient (logP) of 3.58. `CC(=O)n1cc(C2=C(O)C(C)(C)CCC2=O)c2ccccc21` registered a log partition coefficient (logP) of 2.16.

`CCCCN1C(=O)c2ccc([N+](=O)[O-])cc2C1=O`: the logP amounted to 2.26.

The compound `O=C1Cc2ccccc2C(c2ccc([N+](=O)[O-])cc2)N1` (configuration not stated) showed a logP of 2.48. With `COc1ccc(-c2cn[nH]c2N)cc1OC`, the logP turned out to be 0.85.

Compound `CCc1n[nH]c(N)c1-c1ccccc1` had a logP of 1.96. On the same count and under the same terms, then `O=C(NCCCCCCNC(=O)c1ccccc1O)c1ccccc1O`, with 2.85. In the case of `COc1ccc(-c2c(C)n[nH]c2N)cc1OC`, the logP worked out at 1.33. Still for that read-out and setting: then `CCc1n[nH]c(N)c1-c1ccc(OC)c(OC)c1`, with 1.37; and `COc1ccc(-c2c(C)noc2N)cc1OC`, with 1.53; and `Cc1nn(-c2ccccc2)c(N)c1-c1ccccc1`, with 2.92. Same read-out and setting: the value for `Nc1c(-c2ccccc2)cnn1-c1ccccc1` was 2.52. On the same count and under the same terms, then `COc1ccc(Cc2nc3ccccc3c(=O)n2N)cc1OC`, with 1.94. Consider `Nc1[nH]nc(Cc2ccccc2)c1-c1ccccc1`, for which the lipophilicity (logP) was 2.39.
